One data set deals with VE-cadherin. Briefly: VE-cadherin expression in matrix-recovered U251-MG cells (Western blot). In kind it is cell-based, human. The note with it: 1 µM uPAcyclin, VM-forming U251-MG, 24 h. An excerpt: Whole cells were lysed as described, and resolved by SDS-PAGE, followed by Western blotting with PVDF membranes (Millipore, Burlington, MA, USA). The filters were probed with the following antibodies: polyclonal anti-VE Cadherin (Bioss Antibodies, Woburn, MA, USA), polyclonal anti-αV (Millipore), polyclonal anti-GAPDH (Elabscience, Houston, TX, USA), and polyclonal anti-actin (Sigma-Aldrich, St. Louis, MO, USA). Then, goat anti-rabbit IgG-HRP (Sigma) or goat anti-mouse IgG-HRP (Santa Cruz Biotechnology, Dallas, TX, USA) were employed as secondary antibodies. […] Films were imaged using the CanoScan 4400F (Canon, Tokyo, Japan) at 300 dpi, with the Adobe Photoshop Creative Suite 2 or CS2, and bands were quantified with the ImageJ 1.52a software (NIH, Bethesda, MD, USA).
To analyze matrix-embedded U251-MG cells, cells undergoing VM for 24 h were extracted using a 2× mixture of Trypsin, Accutase, and Dispase (1:1:1), acting for 45 min at 37 °C. […] The supernatants were collected and the protein concentration was quantified using the Bradford assay (Biorad, Hercules, CA, USA).
Figure 8 Vascular mimicry formation and VE-cadherin expression inhibited by uPAcyclin in U251-MG cells. […] (B) The quantitation of the branching point number is described in the legend to Figure 6B. […] The densitometric quantitation of VE-cadherin bands is shown (right panel) (* p-value < 0.05; *** p-value < 0.001).

In the next data set the test system is C6 cells. The data set is described as follows: Cell viability/proliferation (Trypan blue, MTT), C6. In kind it is cell-based, rat. The note with it: C6, Trypan blue exclusion and MTT. As to the method:
Cell viability was tested in DMEM/10% FBS, in the presence of 1 nM or 100 nM uPAcyclin, either by Trypan blue exclusion or by thiazolyl blue tetrazolium bromide (MTT) assays, as specified in the figure legends. For the Trypan blue assay, 4 × 10^4 U87-MG, U251-MG, U138-MG, and C6 cells/sample were grown in 12-well plates, and followed for 24, 48 and 72 h. As a negative control, the cells were grown in a serum-free medium. Then, the cells were detached, stained with a 0.2% (w/v) Trypan blue solution, counted using a Burker chamber (T0 = 100%), and reported as number of viable cells/total.
For the MTT assay, 5 × 10^3 U87-MG and C6 cells/well were grown in 96-well plates for 24 h and tested as previously described. Briefly, MTT (Invitrogen-Life Technologies, Eugene, OR, USA) 5 mg/mL in a PBS solution was added to wells at a 10% final concentration, and incubated for 3 h at 37 °C, followed by the addition of stop solution (100 µL of DMSO/well) for 1 h at room temperature. Then, the optical densities were measured at 495 nm using the Microplate Reader (Synergy HT, Bio-Tek, Winoosky, VT, USA). The cell viability rate was calculated as a percentage by reporting the mean absorbance of treated groups to control groups, as follows: Cell viability rate (%) = (Atreated group/Acontrol group) × 100.

Data set [1] relates to U251-MG cells (αV integrin). Briefly: FITC-uPAcyclin receptor binding/competition, U251-MG. Details: species or system human. The note with it: unlabeled uPAcyclin vs FITC-uPAcyclin, 4 °C. Here is the method: The U87-MG, U251-MG, and U138-MG cell lines were harvested and acid-treated, as described. Then, 2 × 10^6 cells/sample were exposed for 30 min at 4 °C to uPAcyclin or S-uPAcyclin at the indicated concentrations, or with the following antibodies: VNR147 monoclonal anti-αV integrin (Chemicon Int. Inc., Temecula, CA, USA), polyclonal anti-αV (Millipore, Burlington, MA, USA), monoclonal anti-α2 (Chemicon Int. Inc., Temecula, CA, USA), polyclonal anti-actin (Sigma-Aldrich, St. Louis, MO, USA), monoclonal anti-GAPDH (Abcam, Cambridge, UK), and purified vitronectin (VN, Corning, Glendale, AZ, USA). The cells were subsequently incubated with 50 nM FITC-uPAcyclin for 2 h at 4 °C, as described. At the end of incubation, the cells were washed and the cell surface-associated fluorescence was determined using a fluorimeter (VICTOR^TM X3-PerkinElmer, Waltham, MA, USA). All binding assays were performed three times, with duplicate samples, and analyzed as described in Section 2.11.
Figure 2 αV expression of U87-MG, U251-MG, and U138-MG GBM cells and specific binding of FITC-uPAcyclin. […] At the end of the incubation, the unbound material was washed and cell-associated FITC-uPAcyclin was quantitated by a fluorimeter. The net value of cell-surface-associated fluorescence, corresponding to the specific binding, is shown. […]

Turning to “Ac-K^1P[ESPPEELK^10]-NH2 (sidechain bridge or staple) [uPAcyclin]”, the VE-cadherin expression entry with VE-cadherin is recorded as “markedly reduced”. Besides, in the data set with C6 cells, the proliferation/viability result is “proliferation and viability are not affected by uPAcyclin”. Further, the Kdapp result in data set [1] is “low nanomolar range”.

(Values after paper PMC10571957, “αV-Integrin-Dependent Inhibition of Glioblastoma Cell Migration, Invasion and Vasculogenic Mimicry by the uPAcyclin Decapeptide” (Cancers, 2023).)
